Measured values from US20250352520A1, “USE OF DEXPRAMIPEXOLE FOR THE TREATMENT OF EOSINOPHILIC COPD” (Areteia Therapeutics, Inc., priority 2024, published 2025).
Where two headings read alike, the source gives them in different places.

Settings: Week 16
Description: Participants performed post-BD spirometry at specific visits as noted in the SOA.
After completing the pre-BD spirometry, participants inhaled four puffs of albuterol/salbutamol (site sourced) metered dose inhaler (approximately 100 μg albuterol/salbutamol base per actuation), with each actuation 1 minute apart. Post-BD spirometry was assessed within 15 to 30 minutes after inhalation of albuterol/salbutamol.

[1] = <50% AEC reduction at Week 16 (N = 4), 150 mg BID
[2] = >=50% AEC reduction at Week 16 (N = 3), 150 mg BID

Structure (SMILES): CCCN[C@@H]1CCc2nc(N)sc2C1 [Dexpramipexole, (6R)-2-amino-4,5,6,7-tetrahydro-6-(propylamino)benzothiazole]
- Post bronchodilator Peak Flow, Observed, Median [1]: 324.5 L/min
- Post bronchodilator Peak Flow, Observed, Min [1]: 146 L/min
- Post bronchodilator Peak Flow, Observed, Q1 [1]: 227 L/min
- Post bronchodilator Peak Flow, Observed, Q3 [1]: 425 L/min
- Post-BD FEV1 % change from baseline, Max (>=50% AEC reduction at Week 16): 57%
- Post-BD FEV1 % change from baseline, Mean ± SD (>=50% AEC reduction at Week 16): 16.6 ± 35.02%
- Post-BD FEV1 % change from baseline, Median (>=50% AEC reduction at Week 16): −1.1%
- Post-BD FEV1 % change from baseline, Min (>=50% AEC reduction at Week 16): −6%
- Post-BD FEV1 % change from baseline, Q1 (>=50% AEC reduction at Week 16): −6%
- Post-BD FEV1 % change from baseline, Q3 (>=50% AEC reduction at Week 16): 57%
- Post-BD FEV1 Observed, Max (>=50% AEC reduction at Week 16): 2150 mL
- Post-BD FEV1 Observed, Mean ± SD (>=50% AEC reduction at Week 16): 1593.3 ± 616.95 mL
- Post-BD FEV1 Observed, Median (>=50% AEC reduction at Week 16): 1700.0 mL
- Post-BD FEV1 Observed, Min (>=50% AEC reduction at Week 16): 930 mL
- Post-BD FEV1 Observed, Q1 (>=50% AEC reduction at Week 16): 930 mL
- Post-BD FEV1 Observed, Q3 (>=50% AEC reduction at Week 16): 2150 mL
- Post-BD FEV1 change from baseline, Max (>=50% AEC reduction at Week 16): 780 mL
- Post-BD FEV1 change from baseline, Mean ± SD (>=50% AEC reduction at Week 16): 220.0 ± 487.54 mL
- Post-BD FEV1 change from baseline, Median (>=50% AEC reduction at Week 16): -10.0 mL
- Post-BD FEV1 change from baseline, Min (>=50% AEC reduction at Week 16): -110 mL
- Post-BD FEV1 change from baseline, Q1 (>=50% AEC reduction at Week 16): -110 mL
- Post-BD FEV1 change from baseline, Q3 (>=50% AEC reduction at Week 16): 780 mL
- Post bronchodilator Forced Expiratory Flow 25-75% (FEF25-75), % CFB (Percent change from baseline), Max [2]: 81%
- Post bronchodilator Forced Expiratory Flow 25-75% (FEF25-75), % CFB (Percent change from baseline), Mean ± SD [2]: 26.7 ± 49.08%
- Post bronchodilator Forced Expiratory Flow 25-75% (FEF25-75), % CFB (Percent change from baseline), Median [2]: 12.5%
- Post bronchodilator Forced Expiratory Flow 25-75% (FEF25-75), % CFB (Percent change from baseline), Min [2]: −14%
- Post bronchodilator Forced Expiratory Flow 25-75% (FEF25-75), % CFB (Percent change from baseline), Q1 [2]: −14%
- Post bronchodilator Forced Expiratory Flow 25-75% (FEF25-75), % CFB (Percent change from baseline), Q3 [2]: 81%
- Post bronchodilator Forced Expiratory Flow 25-75% (FEF25-75), CFB (Change from baseline), Max [2]: 520 mL/s
- Post bronchodilator Forced Expiratory Flow 25-75% (FEF25-75), CFB (Change from baseline), Mean ± SD [2]: 130.0 ± 350.86 mL/s
- Post bronchodilator Forced Expiratory Flow 25-75% (FEF25-75), CFB (Change from baseline), Median [2]: 30.0 mL/s
- Post bronchodilator Forced Expiratory Flow 25-75% (FEF25-75), CFB (Change from baseline), Min [2]: -160 mL/s
- Post bronchodilator Forced Expiratory Flow 25-75% (FEF25-75), CFB (Change from baseline), Q1 [2]: -160 mL/s
- Post bronchodilator Forced Expiratory Flow 25-75% (FEF25-75), CFB (Change from baseline), Q3 [2]: 520 mL/s
- Post bronchodilator Forced Expiratory Flow 25-75% (FEF25-75), Observed, Max [2]: 1160 mL/s
- Post bronchodilator Forced Expiratory Flow 25-75% (FEF25-75), Observed, Mean ± SD [2]: 810.0 ± 474.45 mL/s
- Post bronchodilator Forced Expiratory Flow 25-75% (FEF25-75), Observed, Median [2]: 1000.0 mL/s
- Post bronchodilator Forced Expiratory Flow 25-75% (FEF25-75), Observed, Min [2]: 270 mL/s
- Post bronchodilator Forced Expiratory Flow 25-75% (FEF25-75), Observed, Q1 [2]: 270 mL/s
- Post bronchodilator Forced Expiratory Flow 25-75% (FEF25-75), Observed, Q3 [2]: 1160 mL/s
- Post bronchodilator Forced Vital Capacity (FVC), % CFB (Percent change from baseline), Max [2]: 36%
- Post bronchodilator Forced Vital Capacity (FVC), % CFB (Percent change from baseline), Mean ± SD [2]: 9.2 ± 23.24%
- Post bronchodilator Forced Vital Capacity (FVC), % CFB (Percent change from baseline), Median [2]: −2.4%
- Post bronchodilator Forced Vital Capacity (FVC), % CFB (Percent change from baseline), Min [2]: −6%
- Post bronchodilator Forced Vital Capacity (FVC), % CFB (Percent change from baseline), Q1 [2]: −6%
- Post bronchodilator Forced Vital Capacity (FVC), % CFB (Percent change from baseline), Q3 [2]: 36%
- Post bronchodilator Forced Vital Capacity (FVC), CFB (Change from baseline), Max [2]: 900 mL
- Post bronchodilator Forced Vital Capacity (FVC), CFB (Change from baseline), Mean ± SD [2]: 226.7 ± 585.26 mL
- Post bronchodilator Forced Vital Capacity (FVC), CFB (Change from baseline), Median [2]: -60.0 mL
- Post bronchodilator Forced Vital Capacity (FVC), CFB (Change from baseline), Min [2]: -160 mL
- Post bronchodilator Forced Vital Capacity (FVC), CFB (Change from baseline), Q1 [2]: -160 mL
- Post bronchodilator Forced Vital Capacity (FVC), CFB (Change from baseline), Q3 [2]: 900 mL
- Post bronchodilator Forced Vital Capacity (FVC), Observed, Max [2]: 3400 mL
- Post bronchodilator Forced Vital Capacity (FVC), Observed, Mean ± SD [2]: 2796.7 ± 527.86 mL
- Post bronchodilator Forced Vital Capacity (FVC), Observed, Median [2]: 2570.0 mL
- Post bronchodilator Forced Vital Capacity (FVC), Observed, Min [2]: 2420 mL
- Post bronchodilator Forced Vital Capacity (FVC), Observed, Q1 [2]: 2420 mL
- Post bronchodilator Forced Vital Capacity (FVC), Observed, Q3 [2]: 3400 mL
- Post bronchodilator Peak Flow, % CFB (Percent change from baseline), Max [2]: 103%
- Post bronchodilator Peak Flow, % CFB (Percent change from baseline), Mean ± SD [2]: 40.2 ± 55.44%
- Post bronchodilator Peak Flow, % CFB (Percent change from baseline), Median [2]: 21.5%
- Post bronchodilator Peak Flow, % CFB (Percent change from baseline), Min [2]: −3%
- Post bronchodilator Peak Flow, % CFB (Percent change from baseline), Q1 [2]: −3%
- Post bronchodilator Peak Flow, % CFB (Percent change from baseline), Q3 [2]: 103%
- Post bronchodilator Peak Flow, CFB (Change from baseline), Max [2]: 161 L/min
- Post bronchodilator Peak Flow, CFB (Change from baseline), Mean ± SD [2]: 64.3 ± 86.56 L/min
- Post bronchodilator Peak Flow, CFB (Change from baseline), Median [2]: 38.0 L/min
- Post bronchodilator Peak Flow, CFB (Change from baseline), Min [2]: -6 L/min
- Post bronchodilator Peak Flow, CFB (Change from baseline), Q1 [2]: -6 L/min
- Post bronchodilator Peak Flow, CFB (Change from baseline), Q3 [2]: 161 L/min
- Post bronchodilator Peak Flow, Observed, Max [2]: 318 L/min
- Post bronchodilator Peak Flow, Observed, Mean ± SD [2]: 233.0 ± 77.58 L/min
- Post bronchodilator Peak Flow, Observed, Median [2]: 215.0 L/min
- Post bronchodilator Peak Flow, Observed, Min [2]: 166 L/min
- Post bronchodilator Peak Flow, Observed, Q1 [2]: 166 L/min
- Post bronchodilator Peak Flow, Observed, Q3 [2]: 318 L/min
